Laboratory results reported in patent US9630957B2, “2,3-butanediamide epoxide compound and preparation method and use thereof” (Institute of Pharmacology and Toxicology Academy of …, priority 2014, dated 2017).
≈ marks a conversion by molar mass, not a printed value.

Tests used:
[1] = test system: enterovirus EV71 (BrCr strain); test: Activity screening for anti-enterovirus EV71: inhibition of cytopathic effect in Vero cells; assay type: cell-based; settings: for IC50: 100TCID50, Vero cells, CPE read when virus control reaches 4+, read-out: IC50 (half inhibitory concentration for enterovirus EV71); for SI (Selectivity Index = TC50/IC50): Vero cells
Description: Test item: Activity screening of the compounds for anti-enterovirus EV71
Test principle: Vero cells are used as viral host. The inhibition of the compound of the invention on the degree of cytopathic effect of Vero cells caused by enterovirus virus EV71 is determined.
1. Virus strain: enterovirus EV71 (BrCr, American Type Culture Collection, ATCC)
(§1) 2. Sample treatment: the compounds of the present invention are dissolved in DMSO or diluent to prepare stock solution which is stored at −20° C. The stock solution is formulated to suitable incipient concentration with culture solution immediately before use, and then 3-fold diluted with the culture solution, 8 degrees of dilution each.
3. Positive control drug: Pirodavir (LGM Pharma), which is a broad-spectrum anti-viral inhibitor.
(§2) 4. Test Method: Vero cells are seeded into a 96-well culture plate, at 5% CO2, and cultured at 37° C. for 16 hours. The Vero cells are added with different dilutions of drugs, and the degree of cytopathic effect (CPE) in each group is observed. The half toxic concentration (TC50) of each sample for Vero cells is calculated. Vero cells are added with 100TCID50 enterovirus EV71 respectively, and the virus solution is discarded after adsorption at 37° C. for 1 hour, and then drugs with various degrees of dilution are added respectively. Virus control and cell control are set and incubated at 37° C. The degree of cytopathic effect (CPE) in each group is observed when the degree of cytopathic effect (CPE) of virus control group reaches 4+. The half inhibitory concentration (IC50) of each sample for enterovirus EV71 are calculated. Selectivity Index (SI) is calculated according to the following equation: SI=TC50/IC50.

Vero cells = test: Cytotoxicity of the compounds for Vero cells (CPE observation, TC50); assay type: cell-based; settings: no virus
Description: as §1, §2

COc1ccc(NC(=O)[C@H]2O[C@@H]2C(=O)N(Cc2ccccc2)c2ccccc2)cc1OC [Compound 1, (2S,3S)—N^2-benzyl-N^2-phenyl-N^3-(3,4-dimethoxyphenyl)-2,3-epoxybutanediamide]
IC50 [1]: > 2.47 µg/mL | melting point: 156.5 to 157.2 °C | TC50 (half toxic concentration for Vero cells) (Vero cells): 10.68 µg/mL

COC(=O)c1csc(NC(=O)[C@H]2O[C@@H]2C(=O)N(Cc2ccccc2)c2ccc(C(=O)Nc3nc4ccccc4s3)cc2)n1 [Compound 41, (2S,3S)—N^2-(4-(benzo[d]thiazol-2-ylcarbamoyl)phenyl)-N^2-benzyl-N^3-(4-methoxycarbonylthiazol-2-yl)-2,3-epoxybutanediamide]
IC50 [1]: > 0.82 µg/mL | melting point: 223.5 to 224.3 °C | TC50 (half toxic concentration for Vero cells) (Vero cells): 1.43 µg/mL

O=C(Nc1nc2ccccc2s1)c1ccc(N(Cc2ccc(F)cc2)C(=O)[C@H]2O[C@@H]2C(=O)Nc2cccc(Br)c2)cc1 [Compound 18, (2S,3S)—N^2-(4-(benzo[d]thiazol-2-ylcarbamoyl)phenyl)-N^3-(3-bromophenyl)-N^2-(4-fluorobenzyl)-2,3-epoxybutanediamide]
IC50 [1]: > 0.82 µg/mL | melting point: 206.3 to 207.1 °C | TC50 (half toxic concentration for Vero cells) (Vero cells): 1.43 µg/mL

O=C(Nc1nc2ccccc2s1)c1ccc(N(Cc2ccc(F)cc2)C(=O)[C@H]2O[C@@H]2C(=O)Nc2ccc(Cl)cc2)cc1 [Compound 19, (2S,3S)—N^2-(4-(benzo[d]thiazol-2-ylcarbamoyl)phenyl)-N^3-(4-chlorophenyl)-N^2-(4-fluorobenzyl)-2,3-epoxybutanediamide]
IC50 [1]: > 0.82 µg/mL | melting point: 198.7 to 199.5 °C | TC50 (half toxic concentration for Vero cells) (Vero cells): 1.43 µg/mL

O=C(Nc1ccc([N+](=O)[O-])cc1)[C@H]1O[C@@H]1C(=O)N(Cc1ccccc1)c1ccccc1 [Compound 9, (2S,3S)—N^2-benzyl-N^2-phenyl-N^3-(4-nitrophenyl)-2,3-epoxybutanediamide]
IC50 [1]: 0.82 µg/mL (≈ 1.96 µM) | SI (Selectivity Index = TC50/IC50) [1]: 5.22 | melting point: 160.2 to 161.3 °C | TC50 (half toxic concentration for Vero cells) (Vero cells): 4.28 µg/mL

COc1ccccc1NC(=O)[C@H]1O[C@@H]1C(=O)N(Cc1ccc(F)cc1)c1ccc(C(=O)Nc2nc3ccccc3s2)cc1 [Compound 37, (2S,3S)—N^2-(4-(benzo[d]thiazol-2-ylcarbamoyl)phenyl)-N^3-(2-methoxyphenyl)-N^2-(4-fluorobenzyl)-2,3-epoxybutanediamide]
IC50 [1]: > 0.27 µg/mL | melting point: 189.2 to 190 °C | TC50 (half toxic concentration for Vero cells) (Vero cells): 0.82 µg/mL

COC(=O)c1csc(NC(=O)[C@H]2O[C@@H]2C(=O)N(Cc2ccc(F)cc2)c2ccc(C(=O)Nc3nc4ccccc4s3)cc2)n1 [Compound 34, (2S,3S)—N^2-(4-(benzo[d]thiazol-2-ylcarbamoyl)phenyl)-N^2-(4-fluorobenzyl)-N^3-(4-methoxycarbonylthiazol-2-yl)-2,3-epoxybutanediamide]
IC50 [1]: > 0.82 µg/mL | melting point: 196.3 to 197.1 °C | TC50 (half toxic concentration for Vero cells) (Vero cells): 1.43 µg/mL

O=C(Nc1ccccc1F)[C@H]1O[C@@H]1C(=O)N(Cc1ccccc1)c1ccccc1 [Compound 6, (2S,3S)—N^2-benzyl-N^2-phenyl-N^3-(2-fluorophenyl)-2,3-epoxybutanediamide]
IC50 [1]: 0.82 µg/mL (≈ 2.1 µM) | SI (Selectivity Index = TC50/IC50) [1]: 5.22 | melting point: 139.2 to 140.3 °C | TC50 (half toxic concentration for Vero cells) (Vero cells): 4.28 µg/mL

CCOC(=O)c1cnc(NC(=O)[C@H]2O[C@@H]2C(=O)N(Cc2ccc(F)cc2)c2ccc(C(=O)Nc3nc4ccccc4s3)cc2)s1 [Compound 35, (2S,3S)—N^2-(4-(benzo[d]thiazol-2-ylcarbamoyl)phenyl)-N^2-(4-fluorobenzyl)-N^3-(5-ethoxycarbonylthiazol-2-yl)-2,3-epoxybutanediamide]
IC50 [1]: > 2.47 µg/mL | melting point: 218.6 to 219.2 °C | TC50 (half toxic concentration for Vero cells) (Vero cells): 4.28 µg/mL

O=C(Nc1ccc(Cl)c(Cl)c1)[C@H]1O[C@@H]1C(=O)N(Cc1ccccc1)c1ccccc1 [Compound 3, (2S,3S)—N^2-benzyl-N^2-phenyl-N^3-(3,4-dichlorophenyl)-2,3-epoxybutanediamide]
IC50 [1]: 2.47 µg/mL (≈ 5.6 µM) | SI (Selectivity Index = TC50/IC50) [1]: 2.08 | melting point: 174.5 to 175.7 °C | TC50 (half toxic concentration for Vero cells) (Vero cells): 5.14 µg/mL

O=C(Nc1nc2ccccc2s1)c1ccc(N(Cc2ccc(F)cc2)C(=O)[C@H]2O[C@@H]2C(=O)Nc2cccc(Cl)c2)cc1 [Compound 23, (2S,3S)—N^2-(4-(benzo[d]thiazol-2-ylcarbamoyl)phenyl)-N^3-(3-chlorophenyl)-N^2-(4-fluorobenzyl)-2,3-epoxybutanediamide]
IC50 [1]: > 0.82 µg/mL | melting point: 209.8 to 210.3 °C | TC50 (half toxic concentration for Vero cells) (Vero cells): 1.43 µg/mL

O=C(Nc1cccc(Cl)c1Cl)[C@H]1O[C@@H]1C(=O)N(Cc1ccccc1)c1ccccc1 [Compound 10, (2S,3S)—N^2-benzyl-N^2-phenyl-N^3-(2,3-dichlorophenyl)-2,3-epoxybutanediamide]
IC50 [1]: 0.15 µg/mL (≈ 0.34 µM) | SI (Selectivity Index = TC50/IC50) [1]: 9.53 | melting point: 115.7 to 115.8 °C | TC50 (half toxic concentration for Vero cells) (Vero cells): 1.43 µg/mL

COc1ccc(NC(=O)[C@H]2O[C@@H]2C(=O)N(Cc2ccc(F)cc2)c2ccc(C(=O)Nc3nc4ccccc4s3)cc2)cc1OC [Compound 17, (2S,3S)—N^2-(4-(benzo[d]thiazol-2-ylcarbamoyl)phenyl)-N^3-(3,4-dimethoxyphenyl)-N^2-(4-fluorobenzyl)-2,3-epoxybutanediamide]
IC50 [1]: 38.5 µg/mL (≈ 61.4 µM) | SI (Selectivity Index = TC50/IC50) [1]: 3.00 | melting point: 205.6 to 206.3 °C | TC50 (half toxic concentration for Vero cells) (Vero cells): 115.47 µg/mL

O=C(Nc1nccs1)[C@H]1O[C@@H]1C(=O)N(Cc1ccccc1)c1ccccc1 [Compound 2, (2S,3S)—N^2-benzyl-N^2-phenyl-N^3-(2-thiazolyl)-2,3-epoxybutanediamide]
IC50 [1]: 2.47 µg/mL (≈ 6.51 µM) | SI (Selectivity Index = TC50/IC50) [1]: 4.32 | melting point: 146.6 to 147.4 °C | TC50 (half toxic concentration for Vero cells) (Vero cells): 10.68 µg/mL

O=C(Nc1nc2ccccc2s1)c1ccc(N(Cc2ccc(F)cc2)C(=O)[C@H]2O[C@@H]2C(=O)Nc2ccccc2Br)cc1 [Compound 27, (2S,3S)—N^2-(4-(benzo[d]thiazol-2-ylcarbamoyl)phenyl)-N^3-(2-bromophenyl)-N^2-(4-fluorobenzyl)-2,3-epoxybutanediamide]
IC50 [1]: > 0.27 µg/mL | melting point: 179.2 to 180.1 °C | TC50 (half toxic concentration for Vero cells) (Vero cells): 0.82 µg/mL

Cc1c(Cl)cccc1NC(=O)[C@H]1O[C@@H]1C(=O)N(Cc1ccc(F)cc1)c1ccc(C(=O)Nc2nc3ccccc3s2)cc1 [Compound 28, (2S,3S)—N^2-(4-(benzo[d]thiazol-2-ylcarbamoyl)phenyl)-N^3-(2-methyl-3-chlorophenyl)-N^2-(4-fluorobenzyl)-2,3-epoxybutanediamide]
IC50 [1]: > 0.27 µg/mL | melting point: 210.3 to 211.1 °C | TC50 (half toxic concentration for Vero cells) (Vero cells): 0.82 µg/mL

O=C(Nc1ccc(Cl)cc1)[C@H]1O[C@@H]1C(=O)N(Cc1ccccc1)c1ccccc1 [Compound 12, (2S,3S)—N^2-benzyl-N^2-phenyl-N^3-(4-chlorophenyl)-2,3-epoxybutanediamide]
IC50 [1]: 0.23 µg/mL (≈ 0.565 µM) | SI (Selectivity Index = TC50/IC50) [1]: 46.43 | melting point: 175.2 to 175.8 °C | TC50 (half toxic concentration for Vero cells) (Vero cells): 10.68 µg/mL

O=C(Nc1nc2ccccc2s1)c1ccc(N(Cc2ccc(F)cc2)C(=O)[C@H]2O[C@@H]2C(=O)Nc2ccc(Cl)c(Cl)c2)cc1 [Compound 31, (2S,3S)—N^2-(4-(benzo[d]thiazol-2-ylcarbamoyl)phenyl)-N^3-(3,4-dichlorophenyl)-N^2-(4-fluorobenzyl)-2,3-epoxybutanediamide]
IC50 [1]: > 0.82 µg/mL | melting point: 218.2 to 219.1 °C | TC50 (half toxic concentration for Vero cells) (Vero cells): 1.43 µg/mL

Cc1c(Cl)cccc1NC(=O)[C@H]1O[C@@H]1C(=O)N(Cc1ccccc1)c1ccccc1 [Compound 13, (2S,3S)—N^2-benzyl-N^2-phenyl-N^3-(2-methyl-3-chlorophenyl)-2,3-epoxybutanediamide]
IC50 [1]: > 0.27 µg/mL | melting point: 119.4 to 120.2 °C | TC50 (half toxic concentration for Vero cells) (Vero cells): 1.19 µg/mL

CCOC(=O)c1csc(NC(=O)[C@H]2O[C@@H]2C(=O)N(Cc2ccc(F)cc2)c2ccc(C(=O)Nc3nc4ccccc4s3)cc2)n1 [Compound 33, (2S,3S)—N^2-(4-(benzo[d]thiazol-2-ylcarbamoyl)phenyl)-N^2-(4-fluorobenzyl)-N^3-(4-ethoxycarbonylthiazol-2-yl)-2,3-epoxybutanediamide]
IC50 [1]: > 0.27 µg/mL | melting point: 220.5 to 221.6 °C | TC50 (half toxic concentration for Vero cells) (Vero cells): 1.19 µg/mL

CCOC(=O)c1ccc(OCCC2CCN(c3ccc(C)nn3)CC2)cc1 [Pirodavir, reference compound]
IC50 [1]: 0.13 µg/mL (≈ 0.352 µM) | SI (Selectivity Index = TC50/IC50) [1]: 4.81 | TC50 (half toxic concentration for Vero cells) (Vero cells): 4.81 µg/mL

COC(=O)c1cnc(NC(=O)[C@H]2O[C@@H]2C(=O)N(Cc2ccccc2)c2ccc(C(=O)Nc3nc4ccccc4s3)cc2)s1 [Compound 42, (2S,3S)—N^2-(4-(benzo[d]thiazol-2-ylcarbamoyl)phenyl)-N^2-benzyl-N^3-(5-methoxycarbonylthiazol-2-yl)-2,3-epoxybutanediamide]
IC50 [1]: > 0.82 µg/mL | TC50 (half toxic concentration for Vero cells) (Vero cells): 4.28 µg/mL
